From patent publication US5440016A, “Peptides of the formula (KFmoc) ZZZ and their uses” (priority 1993, dated 1995)
Square brackets hold non-standard residues; d marks the D form. Ends that are not written are not given here. Peptide text beside a SMILES is read from it.

Assays:
[1] = target: T1, trypsin (from bovine pancreas) (Bos taurus, UniProt P00760); assay: Trypsin inhibition assay; format: biochemical; conditions: trypsin concentration of 193 nM; substrate N-alpha-benzoyl-DL-arginine-p-nitroanilide; read-out: IC50, trypsin inhibiting activity
T1 construct: trypsin (from bovine pancreas, 8,600 units/mg solid); from tissue; host or cells: bovine pancreas
T1 sequence (P00760 24-246): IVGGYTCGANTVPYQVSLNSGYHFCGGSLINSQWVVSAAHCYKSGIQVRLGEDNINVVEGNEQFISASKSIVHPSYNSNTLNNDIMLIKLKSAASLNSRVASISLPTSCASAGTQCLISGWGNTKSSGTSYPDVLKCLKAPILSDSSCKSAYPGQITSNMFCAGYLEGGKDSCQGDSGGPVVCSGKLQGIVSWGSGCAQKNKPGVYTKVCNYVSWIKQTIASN
Protocol: The assay was performed in a 96-well assay plate, 15 μl trypsin (from bovine pancreas, 8,600 units/mg solid) solution (0.05 mg/ml 0.02 M HCl), 50 μl peptide solution (1 to 3 mM in water), and 100 μl 0.1 M Tris-buffer containing 25 mM CaCl2 (pH 7.8) were mixed in the wells of the assay plate. After incubation for 30 minutes, 100 μl substrate solution (N^α -benzoyl-DL-arginine-p-nitroanilide, 2.3 mM in water) was added. After 30 minutes, absorbances were read at 405 nm using a Titertek multichannel photometer, and expressed as a percentage of the control (well without peptide). The values obtained with serial dilutions of the peptide solutions were used to determine the IC50 values (concentration neccessary for 50% inhibition).

[2] = tested on: Human red blood cells (RBCs); assay: Hemolytic activity; format: cell-based; conditions: at 100 μg/ml, Tables 22-23
[3] = tested on: Escherichia coli ATCC 25922; conditions: Tables 22-23
Protocol: (§1) Escherichia coli ATCC 25922 and P. aeruginosa ATCC 27853 were used as Gram-negative (-) and Staphylococcus aureus ATCC 29213 as Gram-positive (+) bacteria. Bacteria were grown overnight at 37° C. in Mueller-Hinton (MH) broth. This culture was reinoculated and incubated at 37° C. to reach the exponential phase of bacteria growth, i.e., a final bacterial suspension containing 10^5 to 5×10^5 colony-forming units (CFU)/ml. The concentration of cells was established by plating 100 μl of different dilutions of the culture solution (e.g., 10^-2, 10^-3 and 10^-4) onto solid agar plates.
(§2) Following an overnight incubation at 37° C., the CFU thus formed were counted on each agar plate. In 96-well tissue culture plates, as control blanks, eight wells per plate contained only medium, while as a positive growth control, eight other wells contained medium plus cells.
(§3) The plates were incubated overnight at 37° C., and the optical density (OD) determined at 620 nm after different times of incubation.

[4] = tested on: Staphylococcus aureus ATCC 29213; conditions: Tables 22-23
Protocol: as §1, §2, §3

[5] = tested on: Streptococcus sanguis ATCC 10556; conditions: Tables 22-23
[6] = tested on: Candida albicans ATCC 10231; conditions: Tables 22-23
[7] = tested on: P. aeruginosa ATCC 27853; assay: Antimicrobial assay, P. aeruginosa; conditions: Tables 22-23
Protocol: as §1, §2, §3

CC(=O)N[C@H](CCCNC(=N)N)C(=O)N[C@H](Cc1ccc(O)cc1)C(=O)N[C@H](CCCNC(=N)N)C(=O)N1CCC[C@@H]1C(=O)N[C@H](Cc1c[nH]c2ccccc12)C(=O)N[C@H](CS)C(N)=O [Ac-ryrpwc-NH2] (Ac-[dR][dY][dR][dP][dW][dC]-NH2)
IC50 [1]: 135 µM

CC(=O)N[C@H](CCCNC(=N)N)C(=O)N[C@H](Cc1ccc(O)cc1)C(=O)N[C@H](CCCNC(=N)N)C(=O)N1CCC[C@@H]1C(=O)N[C@H](Cc1c[nH]c2ccccc12)C(=O)N1CCC[C@@H]1C(N)=O [Ac-ryrpwp-NH2] (Ac-[dR][dY][dR][dP][dW][dP]-NH2)
IC50 [1]: 62 µM

CC(=O)N[C@H](CCCNC(=N)N)C(=O)N[C@H](Cc1ccc(O)cc1)C(=O)N[C@H](CCCNC(=N)N)C(=O)N1CCC[C@@H]1C(=O)N[C@H](Cc1c[nH]c2ccccc12)C(=O)N[C@@H](C(N)=O)[C@H](C)O [Ac-ryrpwt-NH2] (Ac-[dR][dY][dR][dP][dW][dT]-NH2)
IC50 [1]: 142 µM

CC(=O)N[C@H](CCCNC(=N)N)C(=O)N[C@H](Cc1ccc(O)cc1)C(=O)N[C@H](CCCNC(=N)N)C(=O)N1CCC[C@@H]1C(=O)N[C@H](Cc1c[nH]c2ccccc12)C(=O)N[C@@H](C(N)=O)C(C)C [Ac-ryrpwv-NH2] (Ac-[dR][dY][dR][dP][dW][dV]-NH2)
IC50 [1]: 131 µM

CC(=O)N[C@H](CCCNC(=N)N)C(=O)N[C@H](Cc1ccc(O)cc1)C(=O)N[C@H](CCCNC(=N)N)C(=O)N1CCC[C@@H]1C(=O)N[C@H](Cc1c[nH]c2ccccc12)C(=O)N[C@H](Cc1c[nH]c2ccccc12)C(N)=O [Ac-ryrpww-NH2] (Ac-[dR][dY][dR][dP][dW][dW]-NH2)
IC50 [1]: 125 µM

Ac-RRWWCN-NH2 [Ac-RRWWCN-NH2]
% hemolysis at 100 μg/ml [2]: 0.1%
IC50 (μg/ml) against E. coli [3]: 40 to 55 µg/mL
IC50 (μg/ml) against S. aureus [4]: 98 to 125 µg/mL
IC50 (μg/ml) against S. sanguis [5]: 230 µg/mL
IC50 (μg/ml) against C. albicans [6]: 222 to 227 µg/mL
IC50 (μg/ml) against P. aeruginosa [7]: 120 µg/mL

Ac-RRWWCP-NH2 [Ac-RRWWCP-NH2]
% hemolysis at 100 μg/ml [2]: 0.0%
IC50 (μg/ml) against E. coli [3]: 19 to 27 µg/mL
IC50 (μg/ml) against S. aureus [4]: 49 to 50 µg/mL
IC50 (μg/ml) against S. sanguis [5]: 190 µg/mL
IC50 (μg/ml) against C. albicans [6]: 217 to 222 µg/mL
IC50 (μg/ml) against P. aeruginosa [7]: 200 µg/mL

Ac-RRWWCQ-NH2 [Ac-RRWWCQ-NH2]
% hemolysis at 100 μg/ml [2]: 0.0%
IC50 (μg/ml) against E. coli [3]: 41 to 42 µg/mL
IC50 (μg/ml) against S. aureus [4]: 52 to 98 µg/mL
IC50 (μg/ml) against S. sanguis [5]: 230 µg/mL
IC50 (μg/ml) against C. albicans [6]: 223 to 230 µg/mL
IC50 (μg/ml) against P. aeruginosa [7]: 60 to 65 µg/mL

Ac-RRWWCR-NH2 [Ac-RRWWCR-NH2]
% hemolysis at 100 μg/ml [2]: 0.0%
IC50 (μg/ml) against E. coli [3]: 12 to 18 µg/mL
IC50 (μg/ml) against S. aureus [4]: 11 to 12 µg/mL
IC50 (μg/ml) against S. sanguis [5]: 22 to 45 µg/mL
IC50 (μg/ml) against C. albicans [6]: 100 to 101 µg/mL
IC50 (μg/ml) against P. aeruginosa [7]: 87 to 130 µg/mL

Ac-RRWWCS-NH2 [Ac-RRWWCS-NH2]
% hemolysis at 100 μg/ml [2]: 1.8%
IC50 (μg/ml) against E. coli [3]: 20 to 21 µg/mL
IC50 (μg/ml) against S. aureus [4]: 41 to 44 µg/mL
IC50 (μg/ml) against S. sanguis [5]: 54 to 59 µg/mL
IC50 (μg/ml) against C. albicans [6]: 211 to 213 µg/mL
IC50 (μg/ml) against P. aeruginosa [7]: 290 µg/mL

Ac-RRWWCT-NH2 [Ac-RRWWCT-NH2]
% hemolysis at 100 μg/ml [2]: 0.5%
IC50 (μg/ml) against E. coli [3]: 24 to 28 µg/mL
IC50 (μg/ml) against S. aureus [4]: 38 to 47 µg/mL
IC50 (μg/ml) against S. sanguis [5]: 56 to 61 µg/mL
IC50 (μg/ml) against C. albicans [6]: 216 to 223 µg/mL
IC50 (μg/ml) against P. aeruginosa [7]: 180 µg/mL

Ac-RRWWCV-NH2 [Ac-RRWWCV-NH2]
% hemolysis at 100 μg/ml [2]: 0.0%
IC50 (μg/ml) against E. coli [3]: 17 to 18 µg/mL
IC50 (μg/ml) against S. aureus [4]: 19 to 21 µg/mL
IC50 (μg/ml) against S. sanguis [5]: 41 to 46 µg/mL
IC50 (μg/ml) against C. albicans [6]: 103 to 174 µg/mL
IC50 (μg/ml) against P. aeruginosa [7]: 33 to 44 µg/mL

Ac-RRWWCW-NH2 [Ac-RRWWCW-NH2]
% hemolysis at 100 μg/ml [2]: 14%
IC50 (μg/ml) against E. coli [3]: 58 to 61 µg/mL
IC50 (μg/ml) against S. aureus [4]: 41 to 43 µg/mL
IC50 (μg/ml) against S. sanguis [5]: 55 to 78 µg/mL
IC50 (μg/ml) against C. albicans [6]: 151 to 166 µg/mL
IC50 (μg/ml) against P. aeruginosa [7]: 60 to 88 µg/mL

Ac-RRWWCY-NH2 [Ac-RRWWCY-NH2]
% hemolysis at 100 μg/ml [2]: 5.8%
IC50 (μg/ml) against E. coli [3]: 20 to 21 µg/mL
IC50 (μg/ml) against S. aureus [4]: 12 to 28 µg/mL
IC50 (μg/ml) against S. sanguis [5]: 59 to 60 µg/mL
IC50 (μg/ml) against C. albicans [6]: 184 to 212 µg/mL
IC50 (μg/ml) against P. aeruginosa [7]: 97 to 110 µg/mL

Cecropin A (KWKLFKKIEKVGQNIRDGIIKAGPAVAVVGQATQIAK; ends and bridges not checked; UniProt P01507 27-63, looked up) [reference compound]
% hemolysis at 100 μg/ml [2]: 0.0%
IC50 (μg/ml) against E. coli [3]: 1 to 2 µg/mL
IC50 (μg/ml) against S. aureus [4]: > 500 µg/mL
IC50 (μg/ml) against S. sanguis [5]: 337 to 400 µg/mL
IC50 (μg/ml) against C. albicans [6]: 81 to 88 µg/mL
IC50 (μg/ml) against P. aeruginosa [7]: 5 to 6 µg/mL
